Experimental data published in BigSolDB 2.1.

O=C1OC(=O)[C@H]2[C@@H]1[C@@H]1C=C[C@H]2C1
solubility (mole fraction)
Settings	278.15 K	283.15 K	288.15 K	293.15 K	298.15 K	303.15 K	308.15 K	313.15 K	318.15 K	323.15 K
in 1,4-dioxane	–	–	0.0718	0.0836	0.0939	0.107	0.123	0.136	0.154	0.173
in DMF	0.0809	0.0925	0.106	0.12	0.135	0.152	0.171	0.186	0.208	0.23
in NMP	0.112	0.126	0.14	0.156	0.172	0.19	0.209	0.225	0.245	0.265
in acetone	0.0395	0.0475	0.0559	0.0658	0.0776	0.0897	0.106	0.121	0.138	0.155
in ethanol	0.00216	0.00264	0.00354	0.00441	0.0056	0.00699	0.00872	0.0109	0.0135	0.0168
in ethyl acetate	0.0293	0.0338	0.0413	0.0484	0.0535	0.0632	0.0737	0.0838	0.0969	0.11
in isobutyl acetate	0.0199	0.0236	0.0284	0.0341	0.0396	0.0468	0.0552	0.0636	0.0741	0.0848
in isopropyl acetate	0.021	0.0258	0.03	0.0357	0.0417	0.0489	0.0569	0.0661	0.0768	0.0878
in methanol	0.00403	0.00504	0.00635	0.00781	0.0101	0.0126	0.0157	0.0201	0.0246	0.0311
in methyl acetate	0.0358	0.0425	0.0485	0.0562	0.0644	0.0754	0.0851	0.0973	0.11	0.125
in n-butyl acetate	0.0216	0.0259	0.031	0.0367	0.0428	0.0505	0.0587	0.0683	0.0788	0.0908
in n-pentyl acetate	0.0192	0.0231	0.0276	0.0327	0.0388	0.0455	0.0535	0.0626	0.0726	0.0837
in n-propyl acetate	0.0249	0.0303	0.0357	0.0414	0.0486	0.0565	0.0661	0.0761	0.0878	0.101
